Source: ChEMBL document CHEMBL5678816, “A Next-Generation TRK Kinase Inhibitor Overcomes Acquired Resistance to Prior TRK Kinase Inhibition in Patients with TRK Fusion-Positive Solid Tumors” (Cancer Discov, 2017)
pIC50: −log10 of the molar value. The source made the active and inactive calls. No cut-off for these calls is given here.

Assays:
[1] = Oral bioavailability in rat at 10 mg/kg administered as 1% carboxymethylcellulose 0.5% Tween 80 formulation by LC-MS analysis; assay type: ADME, organism-based; conditions: in vivo
[2] = target: ALK tyrosine kinase receptor (Homo sapiens) (UniProt Q9UM73); assay: Inhibition of ALK (unknown origin) at 1 uM in presence of ATP relative to control; values are per cent of control
[3] = Inhibition of cell proliferation in MPRIP-NTRK1 fusion positive human CUTO-3 cells incubated for 72 hrs by DAPI staining based analysis; assay type: functional; conditions: CUTO-3, 72 h
SNB-19 = assay: Inhibition of cell proliferation in human SNB-19 cells upto 10 umol/L incubated for 72 hrs by DAPI staining based analysis; assay type: functional; conditions: dose <= 10.0 µmol/L
[4] = target: Fibroblast growth factor receptor 1 (Homo sapiens) (UniProt P11362); assay: Inhibition of FGFR1 (unknown origin) at 1 uM in presence of ATP relative to control; values are per cent of control
Chain of Fibroblast growth factor receptor 1 (Homo sapiens) (P11362 22-822 limits assumed): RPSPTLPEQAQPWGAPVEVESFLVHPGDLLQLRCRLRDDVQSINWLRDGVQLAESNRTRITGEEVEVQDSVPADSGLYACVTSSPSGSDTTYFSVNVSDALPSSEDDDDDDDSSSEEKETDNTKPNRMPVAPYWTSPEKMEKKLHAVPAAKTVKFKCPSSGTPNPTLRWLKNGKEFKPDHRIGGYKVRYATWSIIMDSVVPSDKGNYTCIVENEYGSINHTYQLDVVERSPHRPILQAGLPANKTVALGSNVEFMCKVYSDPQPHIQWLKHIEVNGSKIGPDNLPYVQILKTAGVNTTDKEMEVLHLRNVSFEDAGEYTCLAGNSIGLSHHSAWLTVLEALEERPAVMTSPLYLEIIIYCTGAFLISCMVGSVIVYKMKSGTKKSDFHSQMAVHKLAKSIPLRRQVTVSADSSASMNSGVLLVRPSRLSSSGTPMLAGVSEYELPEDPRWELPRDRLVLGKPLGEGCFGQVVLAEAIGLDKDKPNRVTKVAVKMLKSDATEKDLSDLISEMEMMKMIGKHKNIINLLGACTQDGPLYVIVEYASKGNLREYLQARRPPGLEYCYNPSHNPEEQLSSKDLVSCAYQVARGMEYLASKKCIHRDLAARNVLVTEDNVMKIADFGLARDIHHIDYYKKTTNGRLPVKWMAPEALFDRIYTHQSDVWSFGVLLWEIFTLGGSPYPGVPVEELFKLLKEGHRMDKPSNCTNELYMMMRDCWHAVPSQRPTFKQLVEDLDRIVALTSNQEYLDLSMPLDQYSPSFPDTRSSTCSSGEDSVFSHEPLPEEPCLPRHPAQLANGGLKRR

[5] = target: Myotonin-protein kinase (Homo sapiens) (UniProt Q09013); assay: Inhibition of DMPK (unknown origin) at 1 uM in presence of ATP relative to control; values are per cent of control
Chain of Myotonin-protein kinase (Homo sapiens) (Q09013 whole entry): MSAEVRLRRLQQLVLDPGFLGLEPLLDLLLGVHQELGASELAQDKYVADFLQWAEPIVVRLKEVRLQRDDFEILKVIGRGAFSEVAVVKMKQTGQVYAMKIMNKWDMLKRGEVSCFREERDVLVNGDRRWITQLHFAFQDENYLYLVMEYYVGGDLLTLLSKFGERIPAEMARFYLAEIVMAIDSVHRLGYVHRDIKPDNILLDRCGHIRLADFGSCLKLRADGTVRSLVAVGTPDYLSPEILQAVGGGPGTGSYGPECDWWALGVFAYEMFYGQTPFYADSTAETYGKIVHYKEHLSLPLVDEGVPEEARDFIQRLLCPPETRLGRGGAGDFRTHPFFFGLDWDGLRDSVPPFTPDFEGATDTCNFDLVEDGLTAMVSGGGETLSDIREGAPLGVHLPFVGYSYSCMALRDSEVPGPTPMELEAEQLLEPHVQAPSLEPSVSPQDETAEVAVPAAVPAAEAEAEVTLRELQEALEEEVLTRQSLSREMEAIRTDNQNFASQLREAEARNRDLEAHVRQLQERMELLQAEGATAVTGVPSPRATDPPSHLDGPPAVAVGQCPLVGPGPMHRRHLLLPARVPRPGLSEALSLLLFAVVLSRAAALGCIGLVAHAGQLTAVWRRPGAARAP

[6] = target: Eukaryotic elongation factor 2 kinase (Homo sapiens) (UniProt O00418); assay: Inhibition of eEF-2K (unknown origin) at 1 uM in presence of ATP relative to control; values are per cent of control
MG-63 = assay: Inhibition of cell proliferation in human MG-63 cells upto 10 umol/L incubated for 72 hrs by DAPI staining based analysis; assay type: functional; conditions: dose <= 10.0 µmol/L
AU565 = assay: Inhibition of cell proliferation in human AU565 cells upto 10 umol/L incubated for 72 hrs by DAPI staining based analysis; assay type: functional; conditions: dose <= 10.0 µmol/L
[7] = target: Serine/threonine-protein kinase pim-2 (Homo sapiens) (UniProt Q9P1W9); assay: Inhibition of Pim-2 (unknown origin) at 1 uM in presence of ATP relative to control; values are per cent of control
Chain of Serine/threonine-protein kinase pim-2 (Homo sapiens) (Q9P1W9 whole entry, looked up): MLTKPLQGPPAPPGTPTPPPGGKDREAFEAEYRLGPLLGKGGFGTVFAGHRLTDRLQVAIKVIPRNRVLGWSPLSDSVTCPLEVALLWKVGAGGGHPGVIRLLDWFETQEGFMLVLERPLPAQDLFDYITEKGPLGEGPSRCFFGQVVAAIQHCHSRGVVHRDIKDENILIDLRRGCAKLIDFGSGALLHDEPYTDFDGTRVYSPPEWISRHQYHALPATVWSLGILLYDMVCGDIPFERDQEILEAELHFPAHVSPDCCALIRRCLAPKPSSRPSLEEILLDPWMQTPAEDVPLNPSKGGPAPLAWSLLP

[8] = Cmin in adult patient with recurrent LMNA-NTRK1 rearranged colorectal cancer at 50 mg administered twice a day as powder-in-capsule or liquid formulation for 1 day and measured 10 hrs post dose by LC-MS/MS analysis; assay type: ADME; conditions: human, in vivo, po, read-out: Cmin
HT-1376 = assay: Inhibition of cell proliferation in human HT-1376 cells upto 10 umol/L incubated for 72 hrs by DAPI staining based analysis; assay type: functional; conditions: dose <= 10.0 µmol/L
MV4-11 = assay: Inhibition of cell proliferation in human MV4-11 cells upto 10 umol/L incubated for 72 hrs by DAPI staining based analysis; assay type: functional; conditions: dose <= 10.0 µmol/L
T47D = assay: Inhibition of cell proliferation in human T47D cells upto 10 umol/L incubated for 72 hrs by DAPI staining based analysis; assay type: functional; conditions: dose <= 10.0 µmol/L
SK-BR-3 = assay: Inhibition of cell proliferation in human SK-BR-3 cells upto 10 umol/L incubated for 72 hrs by DAPI staining based analysis; assay type: functional; conditions: dose <= 10.0 µmol/L
[9] = target: Calcium/calmodulin-dependent protein kinase type II subunit gamma (Homo sapiens) (UniProt Q13555); assay: Inhibition of CAMK2g (unknown origin) at 1 uM in presence of ATP relative to control; values are per cent of control
[10] = target: Tyrosine-protein kinase CSK (Homo sapiens) (UniProt P41240); assay: Inhibition of CSK (unknown origin) at 1 uM in presence of ATP relative to control; values are per cent of control
Chain of Tyrosine-protein kinase CSK (Homo sapiens) (P41240 2-450 limits assumed): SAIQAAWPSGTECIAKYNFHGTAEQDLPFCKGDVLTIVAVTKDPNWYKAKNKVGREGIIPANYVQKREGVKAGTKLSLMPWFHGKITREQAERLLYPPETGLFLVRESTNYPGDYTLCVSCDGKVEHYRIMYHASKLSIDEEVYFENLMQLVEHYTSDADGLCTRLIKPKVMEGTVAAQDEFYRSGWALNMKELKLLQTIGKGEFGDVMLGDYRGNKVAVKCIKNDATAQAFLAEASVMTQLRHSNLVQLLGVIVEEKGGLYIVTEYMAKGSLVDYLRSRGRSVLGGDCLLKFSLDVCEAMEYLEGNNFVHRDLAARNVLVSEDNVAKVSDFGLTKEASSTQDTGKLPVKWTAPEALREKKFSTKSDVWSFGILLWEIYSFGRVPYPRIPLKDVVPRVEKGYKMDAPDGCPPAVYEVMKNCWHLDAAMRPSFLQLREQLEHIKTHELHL

[11] = AUC in adult patient with recurrent LMNA-NTRK1 rearranged colorectal cancer at 50 mg administered twice a day as powder-in-capsule or liquid formulation for 1 day by LC-MS/MS analysis; assay type: ADME; conditions: human, in vivo, po
[12] = target: Discoidin domain-containing receptor 2 (Homo sapiens) (UniProt Q16832); assay: Inhibition of DDR2 (unknown origin) at 1 uM in presence of ATP relative to control; values are per cent of control
Chain of Discoidin domain-containing receptor 2 (Homo sapiens) (Q16832 whole entry, the tested form may be a part): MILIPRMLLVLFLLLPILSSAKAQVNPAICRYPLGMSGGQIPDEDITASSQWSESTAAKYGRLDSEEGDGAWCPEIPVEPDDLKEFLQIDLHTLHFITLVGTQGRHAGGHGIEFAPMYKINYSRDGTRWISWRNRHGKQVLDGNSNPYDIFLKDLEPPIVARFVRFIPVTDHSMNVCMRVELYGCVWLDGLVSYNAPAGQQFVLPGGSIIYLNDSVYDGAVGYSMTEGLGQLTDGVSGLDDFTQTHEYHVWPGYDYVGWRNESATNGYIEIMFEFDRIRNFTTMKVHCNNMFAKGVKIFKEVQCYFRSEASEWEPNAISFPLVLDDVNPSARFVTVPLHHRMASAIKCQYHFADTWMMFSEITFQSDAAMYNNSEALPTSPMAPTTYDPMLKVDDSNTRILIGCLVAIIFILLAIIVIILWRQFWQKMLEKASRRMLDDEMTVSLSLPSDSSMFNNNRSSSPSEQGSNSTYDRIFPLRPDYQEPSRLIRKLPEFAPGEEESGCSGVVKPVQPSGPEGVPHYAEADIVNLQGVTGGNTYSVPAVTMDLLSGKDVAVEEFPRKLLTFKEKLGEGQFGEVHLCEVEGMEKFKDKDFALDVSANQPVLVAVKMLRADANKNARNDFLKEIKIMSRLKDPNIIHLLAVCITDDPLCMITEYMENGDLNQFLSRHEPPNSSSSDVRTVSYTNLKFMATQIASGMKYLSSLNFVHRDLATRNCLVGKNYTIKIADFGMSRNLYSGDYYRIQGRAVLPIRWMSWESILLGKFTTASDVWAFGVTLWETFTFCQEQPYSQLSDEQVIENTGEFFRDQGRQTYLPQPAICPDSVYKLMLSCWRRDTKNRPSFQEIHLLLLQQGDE

[13] = target: RAC-beta serine/threonine-protein kinase (Homo sapiens) (UniProt P31751); assay: Inhibition of AKT2 (unknown origin) at 1 uM in presence of ATP relative to control; values are per cent of control
Chain of RAC-beta serine/threonine-protein kinase (Homo sapiens) (P31751 whole entry): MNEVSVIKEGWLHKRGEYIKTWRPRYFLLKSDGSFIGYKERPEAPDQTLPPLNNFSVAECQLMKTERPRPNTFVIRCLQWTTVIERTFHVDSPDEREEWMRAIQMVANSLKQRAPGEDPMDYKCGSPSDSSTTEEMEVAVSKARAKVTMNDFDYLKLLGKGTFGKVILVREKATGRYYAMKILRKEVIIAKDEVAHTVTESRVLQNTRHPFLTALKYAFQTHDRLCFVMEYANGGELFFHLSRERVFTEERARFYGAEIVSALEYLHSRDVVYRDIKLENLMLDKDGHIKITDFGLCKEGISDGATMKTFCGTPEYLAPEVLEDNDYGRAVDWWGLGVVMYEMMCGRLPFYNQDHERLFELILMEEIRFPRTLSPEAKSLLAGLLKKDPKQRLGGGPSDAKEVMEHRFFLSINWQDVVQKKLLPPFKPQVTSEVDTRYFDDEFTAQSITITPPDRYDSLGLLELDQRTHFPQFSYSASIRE

[14] = target: Tyrosine-protein kinase Fer (Homo sapiens) (UniProt P16591); assay: Inhibition of Fer (unknown origin) at 1 uM in presence of ATP relative to control; values are per cent of control
[15] = target: Muscle, skeletal receptor tyrosine-protein kinase (Homo sapiens) (UniProt O15146); assay: Inhibition of MUSK (unknown origin) at 1 uM in presence of ATP relative to control; values are per cent of control
[16] = target: Serine/threonine-protein kinase Nek2 (Homo sapiens) (UniProt P51955); assay: Inhibition of NEK2 (unknown origin) at 1 uM in presence of ATP relative to control; values are per cent of control
[17] = target: Ephrin type-A receptor 2 (Homo sapiens) (UniProt P29317); assay: Inhibition of EphA2 (unknown origin) at 1 uM in presence of ATP relative to control; values are per cent of control
Chain of Ephrin type-A receptor 2 (Homo sapiens) (P29317 whole entry): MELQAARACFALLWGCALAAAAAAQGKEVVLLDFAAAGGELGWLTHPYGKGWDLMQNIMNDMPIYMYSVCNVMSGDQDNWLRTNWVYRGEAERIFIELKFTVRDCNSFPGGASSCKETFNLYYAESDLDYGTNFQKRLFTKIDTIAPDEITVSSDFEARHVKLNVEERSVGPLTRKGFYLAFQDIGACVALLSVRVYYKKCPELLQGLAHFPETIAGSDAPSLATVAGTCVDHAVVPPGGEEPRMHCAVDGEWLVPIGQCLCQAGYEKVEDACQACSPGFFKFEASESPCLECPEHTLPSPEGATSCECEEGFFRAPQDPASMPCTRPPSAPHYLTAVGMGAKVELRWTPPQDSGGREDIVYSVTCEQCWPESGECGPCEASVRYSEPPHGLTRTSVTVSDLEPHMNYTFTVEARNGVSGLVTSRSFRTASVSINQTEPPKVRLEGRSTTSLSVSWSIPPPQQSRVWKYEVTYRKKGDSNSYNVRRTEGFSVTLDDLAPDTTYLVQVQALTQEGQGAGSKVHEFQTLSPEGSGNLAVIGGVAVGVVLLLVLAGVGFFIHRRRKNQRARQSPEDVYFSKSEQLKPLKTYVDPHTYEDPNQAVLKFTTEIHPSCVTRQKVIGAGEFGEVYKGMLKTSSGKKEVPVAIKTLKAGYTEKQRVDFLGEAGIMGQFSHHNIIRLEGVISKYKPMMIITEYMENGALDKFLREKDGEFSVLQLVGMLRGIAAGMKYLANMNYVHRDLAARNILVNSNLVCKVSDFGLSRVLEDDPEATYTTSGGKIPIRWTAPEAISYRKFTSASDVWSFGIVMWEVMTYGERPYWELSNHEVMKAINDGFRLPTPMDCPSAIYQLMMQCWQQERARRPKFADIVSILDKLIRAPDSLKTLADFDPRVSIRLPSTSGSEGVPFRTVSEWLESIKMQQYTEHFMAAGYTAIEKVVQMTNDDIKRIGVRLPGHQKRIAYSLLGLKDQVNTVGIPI

[18] = target: Serine/threonine-protein kinase WNK3 (Homo sapiens) (UniProt Q9BYP7); assay: Inhibition of WNK3 (unknown origin) at 1 uM in presence of ATP relative to control; values are per cent of control
[19] = target: Inhibitor of nuclear factor kappa-B kinase subunit alpha (Homo sapiens) (UniProt O15111); assay: Inhibition of IKKalpha (unknown origin) at 1 uM in presence of ATP relative to control; values are per cent of control
[20] = target: Mitogen-activated protein kinase 9 (Homo sapiens) (UniProt P45984); assay: Inhibition of JNK2alpha2 (unknown origin) at 1 uM in presence of ATP relative to control; values are per cent of control
Chain of Mitogen-activated protein kinase 9 (Homo sapiens) (P45984 whole entry, looked up): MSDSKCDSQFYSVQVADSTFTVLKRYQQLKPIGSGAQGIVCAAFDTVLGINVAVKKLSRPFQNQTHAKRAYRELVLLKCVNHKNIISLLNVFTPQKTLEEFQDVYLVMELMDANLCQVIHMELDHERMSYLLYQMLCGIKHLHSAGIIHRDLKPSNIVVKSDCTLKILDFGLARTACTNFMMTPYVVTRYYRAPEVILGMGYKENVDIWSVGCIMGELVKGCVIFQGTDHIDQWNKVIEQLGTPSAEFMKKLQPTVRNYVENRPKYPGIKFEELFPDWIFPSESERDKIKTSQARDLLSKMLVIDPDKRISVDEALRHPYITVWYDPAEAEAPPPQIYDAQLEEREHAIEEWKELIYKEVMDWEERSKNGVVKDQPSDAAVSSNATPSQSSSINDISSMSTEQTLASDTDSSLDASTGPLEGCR

FaDu = assay: Inhibition of cell proliferation in human FaDu cells upto 10 umol/L incubated for 72 hrs by DAPI staining based analysis; assay type: functional; conditions: dose <= 10.0 µmol/L
[21] = target: MAP kinase-activated protein kinase 2 (Homo sapiens) (UniProt P49137); assay: Inhibition of MAPKAP-K2 (unknown origin) at 1 uM in presence of ATP relative to control; values are per cent of control
[22] = target: CDK6/cyclin D3 (Homo sapiens) (UniProt P30281+Q00534); assay: Inhibition of CDK6/cyclinD3 (unknown origin) at 1 uM in presence of ATP relative to control; values are per cent of control

C[C@@H]1CCc2ncc(F)cc2[C@H]2CCCN2c2ccn3ncc(c3n2)C(=O)N1 [SELITRECTINIB]
bioavailability [1]: 24% | residual activity [2]: 50% | pIC50 [3]: ≥ 8.30 | inhibition (SNB-19): inactive | residual activity [4]: 91.5% | residual activity [5]: 106% | residual activity [6]: 118% | inhibition (MG-63): inactive | inhibition (AU565): inactive | residual activity [7]: 120% | concentration at 34 h [8]: 1.86 ng/mL | inhibition (HT-1376): inactive | inhibition (MV4-11): inactive | inhibition (T47D): inactive | inhibition (SK-BR-3): inactive | residual activity [9]: 95% | residual activity [10]: 112% | AUC at 24 h [11]: 1190 ng·h/mL | residual activity [12]: 93% | residual activity [13]: 121% | residual activity [14]: 91% | residual activity [15]: 89.5% | residual activity [16]: 117% | residual activity [17]: 79.5% | residual activity [18]: 110% | residual activity [19]: 96.5% | residual activity [20]: 100% | inhibition (FaDu): inactive | residual activity [21]: 102% | residual activity [22]: 110%
